Test results taken from PubChem BioAssay AID330 (DTP/NCI, 2004).
Several values for one entry are separate records, joined by “and”; a condition that tells them apart may be missing. Equal entries are not always repeated. Inconclusive results and toxic doses are left out. How the source made its calls: active means survival T/C of 150% or more; inactive means T/C below 125% in these data.

System: P388 leukemia ip, CD2F1 mice, survival T/C
Assay: NCI In Vivo Anticancer Drug Screen. Data for tumor model P388 Leukemia (intraperitoneal) in CD2F1 (CDF1) mice
Conditions: endpoint: median survival time, higher = longer survival
Procedure, shortened: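 Mice carrying the transplanted tumor received test compound or vehicle. Survival was recorded in each group, and the value is the treated-group measurement divided by that of the vehicle-treated control group.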

[1] = dose: 50.0 mg/kg/injection, schedule: Q01DX009 (ip), vehicle: saline with Tween-80
[2] = dose: 100.0 mg/kg/injection, schedule: Q01DX009 (ip), vehicle: saline with Tween-80
[3] = dose: 12.5 mg/kg/injection, schedule: Q01DX009 (ip), vehicle: saline
[4] = dose: 50.0 mg/kg/injection, schedule: Q01DX005 (ip), vehicle: saline with Tween-80
[5] = dose: 100.0 mg/kg/injection, schedule: Q01DX005 (ip), vehicle: saline with Tween-80
[6] = dose: 12.5 mg/kg/injection, schedule: Q01DX005 (ip), vehicle: saline with Tween-80
[7] = dose: 25.0 mg/kg/injection, schedule: Q01DX005 (ip), vehicle: saline with Tween-80
[8] = dose: 60.0 mg/kg/injection, schedule: Q01DX005 (ip), vehicle: saline with Tween-80
[9] = dose: 120.0 mg/kg/injection, schedule: Q01DX005 (ip), vehicle: saline with Tween-80
[10] = dose: 240.0 mg/kg/injection, schedule: Q01DX005 (ip), vehicle: saline with Tween-80
[11] = dose: 6.25 mg/kg/injection, schedule: Q01DX009 (ip), vehicle: saline with Tween-80
[12] = dose: 12.5 mg/kg/injection, schedule: Q01DX009 (ip), vehicle: saline with Tween-80
[13] = dose: 25.0 mg/kg/injection, schedule: Q01DX009 (ip), vehicle: saline with Tween-80
[14] = dose: 50.0 mg/kg/injection, schedule: Q01DX005 (ip), vehicle: Klucel (hydroxypropylcellulose) (HPC)
[15] = dose: 100.0 mg/kg/injection, schedule: Q01DX005 (ip), vehicle: Klucel (hydroxypropylcellulose) (HPC)
[16] = dose: 200.0 mg/kg/injection, schedule: Q01DX005 (ip), vehicle: Klucel (hydroxypropylcellulose) (HPC)
[17] = dose: 25.0 mg/kg/injection, schedule: Q01DX009 (ip), vehicle: water
[18] = dose: 50.0 mg/kg/injection, schedule: Q01DX009 (ip), vehicle: water
[19] = dose: 50.0 mg/kg/injection, schedule: Q01DX009 (ip), vehicle: Klucel (hydroxypropylcellulose) (HPC)
[20] = dose: 100.0 mg/kg/injection, schedule: Q01DX009 (ip), vehicle: Klucel (hydroxypropylcellulose) (HPC)
[21] = dose: 200.0 mg/kg/injection, schedule: Q01DX009 (ip), vehicle: Klucel (hydroxypropylcellulose) (HPC)
[22] = dose: 60.0 mg/kg/injection, schedule: Q01DX005 (ip), vehicle: Klucel (hydroxypropylcellulose) (HPC)
[23] = dose: 120.0 mg/kg/injection, schedule: Q01DX005 (ip), vehicle: Klucel (hydroxypropylcellulose) (HPC)
[24] = dose: 240.0 mg/kg/injection, schedule: Q01DX005 (ip), vehicle: Klucel (hydroxypropylcellulose) (HPC)
[25] = dose: 50.0 mg/kg/injection, schedule: Q01DX009 (ip), vehicle: saline

Measured: T/C

CCCCCCC(=O)/C=C/c1cc(OC)c(OC)c(OC)c1
inactive: [1] 101 % of control | [2] 96 % of control | dose: 200.0 mg/kg/injection, schedule: Q01DX009 (ip), vehicle: saline with Tween-80 92 % of control

C[NH-].C[NH-].[Cl][Pt+2][Cl]
inactive: [3] 113 % of control

Cc1nc2ccccc2c(=O)n1/N=C/c1ccc(Cl)cc1Cl
inactive: [4] 92 % of control | [5] 100 % of control

C(=N\N=C1c2ccccc2-c2ccccc21)/c1ccc2ccc3cccc4ccc1c2c34
inactive: [6] 93 % of control | [7] 95 % of control | dose: 30.0 mg/kg/injection, schedule: Q01DX005 (ip), vehicle: saline with Tween-80 88 % of control | [4] 91 % of control | [8] 86 % of control | [9] 88 % of control | [10] 89 % of control

CCOc1ccc2nc3cc(N=Nc4ccc(N)nc4N)ccc3c(N)c2c1
inactive: [6] 106 % of control | [7] 113 % of control | [4] 104 % of control and 105 % of control

Cn1c(=O)c2c(ncn2C2C(=O)NNC2=O)n(C)c1=O
inactive: dose: 100.0 mg/kg/injection, schedule: Q01DX001 (ip), vehicle: Klucel (hydroxypropylcellulose) (HPC) 100 % of control | dose: 200.0 mg/kg/injection, schedule: Q01DX001 (ip), vehicle: Klucel (hydroxypropylcellulose) (HPC) 93 % of control | dose: 400.0 mg/kg/injection, schedule: Q01DX001 (ip), vehicle: Klucel (hydroxypropylcellulose) (HPC) 94 % of control

Nc1nccc(Cl)n1
inactive: [11] 98 % of control | [12] 100 % of control | [13] 100 % of control | [1] 100 % of control

CN=C1c2ccccc2C(=O)c2c1c(O)n(C)c2O
inactive: [14] 97 % of control | [15] 97 % of control | [16] 106 % of control

NNC(=O)c1ccccc1N
inactive: [17] 96 % of control | [18] 96 % of control

NP1(N)=NP(N)(N)=NP(N)(N)=NP(N)(N)=N1
inactive: [14] 96 % of control | [15] 96 % of control | [16] 99 % of control

c1cnn([B-]2(n3cccn3)n3ccc[n+]3[B-](n3cccn3)(n3cccn3)n3ccc[n+]32)c1
inactive: [8] 102 % of control | [9] 102 % of control | [10] 100 % of control

CSC(=S)N/N=C/c1ccccc1O
inactive: [11] 90 % of control | [12] 90 % of control | [13] 95 % of control

CN1Cc2c(N)cccc2C(c2ccccc2)C1 (configuration not stated)
inactive: [19] 96 % of control | [20] 105 % of control

Nc1nc(SCc2ccccc2)sc1C(=O)N(Cc1ccccc1)Cc1ccccc1
inactive: [19] 98 % of control | [20] 100 % of control | [21] 100 % of control

Cc1cccc(C)c1NC1c2ccccc2C=Cc2ccccc21
inactive: [1] 87 % of control | [2] 89 % of control

O=C1C(Cl)=C(N2CCOCC2)C(=O)C(Cl)=C1N1CCOCC1
inactive: dose: 50.0 mg/kg/injection, schedule: Q01DX005 (ip), vehicle: suspension in saline 99 % of control | dose: 100.0 mg/kg/injection, schedule: Q01DX005 (ip), vehicle: suspension in saline 104 % of control

O=S(=O)(N/N=C/c1ccccc1)c1ccccc1
inactive: dose: 25.0 mg/kg/injection, schedule: Q01DX009 (ip), vehicle: Klucel (hydroxypropylcellulose) (HPC) 106 % of control | [19] 97 % of control | [20] 99 % of control | [21] 106 % of control

O=c1[nH]c2c([N+](=O)[O-])cc(Cl)cc2nc1/C=C(\O)c1ccccn1
inactive: [22] 101 % of control | [23] 99 % of control | [24] 98 % of control

CCCCc1ccc(N(C)C)cc1
inactive: [12] 101 % of control | [13] 110 % of control | [1] 110 % of control

O=NNc1nc(-c2ccccc2)ns1
inactive: dose: 1.56 mg/kg/injection, schedule: Q01DX009 (ip), vehicle: water 100 % of control | dose: 3.12 mg/kg/injection, schedule: Q01DX009 (ip), vehicle: water 100 % of control and 101 % of control | dose: 6.25 mg/kg/injection, schedule: Q01DX009 (ip), vehicle: water 104 % of control and 97 % of control | dose: 12.5 mg/kg/injection, schedule: Q01DX009 (ip), vehicle: water 100 % of control and 97 % of control | [17] 101 % of control and 97 % of control | [18] 100 % of control

COc1cc2c(cc1OC)C(CC1CCN3CCCCC3C1)NCC2 (configuration not stated)
inactive: dose: 87.5 mg/kg/injection, schedule: Q04DX003 (ip), vehicle: saline 103 % of control

CN(C)c1ccc(C(c2cc3c(cc2O)OCO3)N2CCN(C(c3ccc(N(C)C)cc3)c3cc4c(cc3O)OCO4)CC2)cc1 (configuration not stated)
inactive: dose: 60.0 mg/kg/injection, schedule: Q01DX005 (ip), vehicle: saline 96 % of control | dose: 120.0 mg/kg/injection, schedule: Q01DX005 (ip), vehicle: saline 100 % of control | dose: 240.0 mg/kg/injection, schedule: Q01DX005 (ip), vehicle: saline 99 % of control

CC1(C)OP(=O)(O)C=C1Br
inactive: [25] 103 % of control | dose: 100.0 mg/kg/injection, schedule: Q01DX009 (ip), vehicle: saline 107 % of control | dose: 200.0 mg/kg/injection, schedule: Q01DX009 (ip), vehicle: saline 93 % of control

CC(C)N1NC1(C)C (configuration not stated)
inactive: [4] 107 % of control | [5] 107 % of control | dose: 200.0 mg/kg/injection, schedule: Q01DX005 (ip), vehicle: saline with Tween-80 100 % of control

C=C(C)C1Oc2ccc(C(C)=O)cc2C1O (configuration not stated)
inactive: dose: 8.8 mg/kg/injection, schedule: Q01DX009 (ip), vehicle: saline 103 % of control | dose: 17.5 mg/kg/injection, schedule: Q01DX009 (ip), vehicle: saline 89 % of control | dose: 35.0 mg/kg/injection, schedule: Q01DX009 (ip), vehicle: saline 100 % of control

CC(C)(CO)NO
inactive: dose: 50.0 mg/kg/injection, schedule: Q01DX005 (ip), vehicle: saline 106 % of control | dose: 100.0 mg/kg/injection, schedule: Q01DX005 (ip), vehicle: saline 103 % of control | dose: 200.0 mg/kg/injection, schedule: Q01DX005 (ip), vehicle: saline 104 % of control

Cc1cc2c(=O)cc(-c3ccccc3)oc2c(C#N)c1C
inactive: [22] 99 % of control | [23] 94 % of control | [24] 93 % of control

N#CC[n+]1ccc2ccccc2c1
inactive: [3] 105 % of control | dose: 25.0 mg/kg/injection, schedule: Q01DX009 (ip), vehicle: saline 99 % of control | [25] 101 % of control

O=Nc1cc(S(=O)(=O)O)c2cccnc2c1O
inactive: dose: 100.0 mg/kg/injection, schedule: Q04DX002 (ip), vehicle: saline 100 % of control | dose: 200.0 mg/kg/injection, schedule: Q04DX002 (ip), vehicle: saline 100 % of control | dose: 400.0 mg/kg/injection, schedule: Q04DX002 (ip), vehicle: saline 90 % of control
